Laboratory results published in publication PMC5404377 (Bioorganic & medicinal chemistry letters, 2016).

Experiments:
[1] = target: hMOR (Homo sapiens, UniProt P35372); settings: read-out: Ki (nM) MOR; literature value; ref [14]; cited from earlier work
[2] = target: hKOR (Homo sapiens, UniProt P41145); settings: read-out: Ki (nM) KOR; literature value; ref [14]; cited from earlier work
[3] = target: MOR (Rattus norvegicus, UniProt P33535); assay: [35S]GTPγS assay, agonist efficacy at MOR; assay type: biochemical; settings: for MOR functional profile: [35S]GTPγS; for Emax: read-out: MOR %Emax
MOR, sequence (P33535 whole entry): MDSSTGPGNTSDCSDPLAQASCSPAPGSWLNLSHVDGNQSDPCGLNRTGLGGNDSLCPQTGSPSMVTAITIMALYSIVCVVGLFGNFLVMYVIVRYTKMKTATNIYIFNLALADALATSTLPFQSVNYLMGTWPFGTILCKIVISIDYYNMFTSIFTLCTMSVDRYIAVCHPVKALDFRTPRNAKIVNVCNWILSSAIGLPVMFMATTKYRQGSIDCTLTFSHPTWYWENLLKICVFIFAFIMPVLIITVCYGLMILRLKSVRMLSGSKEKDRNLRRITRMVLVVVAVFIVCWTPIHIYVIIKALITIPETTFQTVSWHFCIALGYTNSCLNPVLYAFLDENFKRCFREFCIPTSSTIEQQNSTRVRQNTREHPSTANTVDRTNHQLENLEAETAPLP

[4] = target: DOR (Rattus norvegicus, UniProt P33533); assay: [35S]GTPγS assay, agonist efficacy at DOR; assay type: biochemical; settings: for agonist activity at DOR: [35S]GTPγS
DOR, sequence (P33533 whole entry): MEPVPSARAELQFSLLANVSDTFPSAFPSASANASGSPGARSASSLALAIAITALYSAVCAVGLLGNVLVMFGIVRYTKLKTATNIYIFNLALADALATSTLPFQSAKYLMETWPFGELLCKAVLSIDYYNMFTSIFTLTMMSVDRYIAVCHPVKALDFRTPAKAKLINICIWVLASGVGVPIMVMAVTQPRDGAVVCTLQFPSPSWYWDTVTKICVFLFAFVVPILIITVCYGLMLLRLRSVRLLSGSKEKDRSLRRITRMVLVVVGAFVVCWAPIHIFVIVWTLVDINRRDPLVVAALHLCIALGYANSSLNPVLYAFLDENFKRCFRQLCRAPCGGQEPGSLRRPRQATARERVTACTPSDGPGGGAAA

[5] = test system: Male Swiss-Webster mice; assay: Hot plate nociception test; assay type: in vivo; settings: mouse
[6] = test system: Male Swiss-Webster mice; assay: Tail-flick nociceptive test; assay type: in vivo; settings: mouse

hKOR, sequence (P41145 whole entry): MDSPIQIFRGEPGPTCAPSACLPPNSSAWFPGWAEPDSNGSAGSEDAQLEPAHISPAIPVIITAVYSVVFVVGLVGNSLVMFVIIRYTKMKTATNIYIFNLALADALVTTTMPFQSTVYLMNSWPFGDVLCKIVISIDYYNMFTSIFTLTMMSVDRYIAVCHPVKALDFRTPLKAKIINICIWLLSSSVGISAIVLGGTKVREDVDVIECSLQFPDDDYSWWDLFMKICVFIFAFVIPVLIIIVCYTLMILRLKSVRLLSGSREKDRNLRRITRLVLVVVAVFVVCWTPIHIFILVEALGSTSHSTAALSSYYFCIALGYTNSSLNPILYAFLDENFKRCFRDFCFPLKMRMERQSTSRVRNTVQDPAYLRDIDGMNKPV
hMOR, sequence (P35372 whole entry): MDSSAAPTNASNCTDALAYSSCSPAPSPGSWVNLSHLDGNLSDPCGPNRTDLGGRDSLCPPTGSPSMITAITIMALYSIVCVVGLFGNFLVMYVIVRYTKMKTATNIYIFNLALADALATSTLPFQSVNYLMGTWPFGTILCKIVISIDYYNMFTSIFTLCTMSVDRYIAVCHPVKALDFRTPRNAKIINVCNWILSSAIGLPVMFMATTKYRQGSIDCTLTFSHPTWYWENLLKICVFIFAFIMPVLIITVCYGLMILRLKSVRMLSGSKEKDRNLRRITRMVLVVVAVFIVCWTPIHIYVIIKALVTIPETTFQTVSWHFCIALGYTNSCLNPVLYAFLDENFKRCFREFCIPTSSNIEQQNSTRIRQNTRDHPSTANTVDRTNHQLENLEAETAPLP

O=C1/C(=C/c2ccccc2)C[C@@]2(O)[C@H]3Cc4ccc(O)c5c4[C@@]2(CCN3CC2CC2)[C@H]1O5 [BNTX, benzylidenenaltrexone]
Ki [1]: 26 nM | Ki [2]: 48 nM

CN1CC[C@]23c4c5ccc(O)c4O[C@H]2C(=O)/C(=C/c2ccccc2)C[C@@]3(O)[C@H]1C5 [Compound 6, 7-benzylideneoxymorphone]
EC50 [3]: 72 ± 11 nM | MOR functional profile [3]: partial agonists | Emax [3]: 39 ± 1.3% | agonist activity at DOR [4]: no significant agonist activity | hot plate antinociception compared to saline control ([5]; 50 mg/kg s.c., at 30 min (p<0.05)): significantly greater antinociception | hot plate antinociception compared to saline control ([5]; 60 mg/kg s.c., at 30 (p<0.01), 50 (p<0.001), 70 (p<0.05) min): significantly greater antinociception | Emax, hot plate antinociception ([5]; s.c., increasing doses 20-60 mg/kg): approximately 40 % MPE | tail-flick antinociception compared to saline control ([6]; 50 mg/kg s.c., at 70 min (p<0.01)): significantly greater antinociception | tail-flick antinociception compared to saline control ([6]; 60 mg/kg s.c., at 30 (p<0.001), 50 (p<0.01), 70 (p<0.01) min): significantly greater antinociception | time of peak antinociception effects, tail-flick ([6]; 60 mg/kg s.c., post-administration): 30 min

O=C1/C(=C/c2ccccc2)C[C@@]2(O)[C@H]3Cc4ccc(O)c5c4[C@@]2(CCN3CCc2ccccc2)[C@H]1O5 [Compound 7]
MOR functional profile [3]: partial agonists | Emax [3]: 52 ± 3.8% | agonist activity at DOR [4]: no significant agonist activity | Emax ([4]; read-out: DOR %Emax): < 10%

O=C1/C(=C/c2ccccc2)C[C@@]2(O)[C@H]3Cc4ccc(O)c5c4[C@@]2(CCN3CCCc2ccccc2)[C@H]1O5 [Compound 8]
Emax [3]: < 10%
